Experimental findings from publication PMC8381248 (Frontiers in Pharmacology, 2021) are described below.

The subject of data set [1] is PE-constricted aortic rings. The data set can be described thus: Vasorelaxant effects on isolated PE-constricted aortic rings. More on the design: species or system SD rats. As to conditions: 10^–6 M PE, n = 6. Here is the method: SD rats were anesthetized by exposure to ether, and the thoracic aorta was removed and immersed in Krebs-Henseleit (K-H) buffer ([Lee et al., 2013]) at 4°C. The connective tissues and fats around the aorta were carefully removed under the microscopes, and the blood was flushed. The aorta ring was cut into four sections approximately 3 mm long and suspended in organ chambers containing K-H buffer. The endothelium was also removed by gently rubbing the lumen of the vessel with a cotton swab. The aortic rings were placed in a 5 ml organ chambers of DMT multiwire myograph system (620M, Danish Myo Technology, Denmark) and were filled with K-H buffer aerated with 95% O2 and 5% CO2 at 37°C. The aortic rings were mounted on hooks connected to a tension transducer and a displacement device.
The initial vessel tension was slowly adjusted to 15 mN and maintained balanced for 60 min. The buffer was renewed once every 15 min. After equilibration, the vessel viability was pre-constricted by exposing the aortic rings to 60 mM KCl for 10 min ([Ding et al., 2019]). Then, the K-H buffer was continuously renewed to elute and restore the initial tension of the vascular ring to assay the vascular activity. The pre-treated operation was repeated two times, where the constriction amplitude after each KCl stimulation to reach the previous constriction amplitude was taken as the criterion, before the experiment continued. Subsequently, 10^–6 M PE was added to contract the blood vessel. After the constriction was stable, different concentrations of Ach (10^−9–10^–5 M) were used to dilate the vessels. Then, the vasorelaxation degree could be calculated with different Ach concentrations, as the following equation: Vasorelaxation degree (%)=Maxium constriction tension induced by PE−Minium diastolic tension induced by Ach/Maxium constriction tension induced by PE−Resting tension×100% (10) When the vasorelaxation degree corresponding to Ach (10^–5 M) is greater than 80%, the vascular endothelium is considered intact and functional. The endothelium is considered to be removed with a vasorelaxation degree of less than 20% ([Lee et al., 2013]). Endothelium-intact and endothelium-denuded aortic rings from the same aorta were tested.
After equilibration, the endothelium-intact and the endothelium-denuded aortic rings were pre-constricted with 10^–6 M PE in the K-H buffer system.
After equilibration, the endothelium-intact aortic rings were pre-constricted with 10^–6 M PE in the K-H buffer system. […] Then, the corresponding vasoconstrictive responses were examined and recorded.
In the vasorelaxant effects investigations, all the data are presented as mean ± SEM. Statistical analysis was performed using two-way ANOVA followed by Fisher’s least significant difference (LSD) test. Values at p < 0.05 were considered statistically significant.

Data set [2] can be described thus: Metabolic stability in rat liver microsomes. As to conditions: for T1/2: 0.5 mg/ml microsomal protein, n = 2. Here is the method: Then, this incubation plate containing mixed solution and NADPH regeneration system was agitated on a plate shaker at 100 rpm and pre-incubated at 37°C for 5 min. Subsequently, 300 μL of precooled quenching solution was added to each well of another deep-well plate (quench plate), which was cooled on ice. The solution in the incubation plate was transferred into the well of the quench plate as the samples in 0 min before it was mixed with another 20 µL of NADPH regeneration solution in the wells.
The incubation plate was incubated at 37°C for 0, 10, 30, and 90 min. At each time point, 100 μL of the supernatant in the incubation plate was removed from each well, quenched immediately, transferred to the wells of the ice-cold quench plate, and vortexed for 5 min. Additionally, an equal volume of pre-warmed fresh regeneration solution was added to the incubation plate for compensation after every withdrawal. […] Each test was operated in duplicate. The determination conditions of LC-MS/MS are shown in Support Materials (Supplementary Table S4).
The in vitro T1/2 was determined by converting the analyte/IS peak area ratios to percentage of drug remaining using the initial peak (t = 0 min) area ratio values as 100%.
(Liver microsomes are vesicles of endoplasmic reticulum, rich in cytochrome P450 enzymes.)

Data set [3] in a line: Kinetic solubility test in PBS. It counts as physicochemical. As to conditions: phosphate-buffer saline (PBS), aqueous buffer, kinetic from dmso stock; PBS (100 mM, pH 7.4). On the procedure: Internal standard (IS) solutions (propranolol and tolbutamide) were dissolved by acetonitrile (50 ng/ml propranolol + 200 ng/ml tolbutamide).
The sample solutions were analyzed using LC-MS/MS. All the samples (test samples and references) for detection were prepared in duplicate. The conditions for LC-MS/MS are shown in Support Materials (Supplementary Table S1).

Data set [4] in a line: in vitro. To be noted: PAMPA. Here is the method:
Verapamil and digoxin solutions, used as reference, prepared in the same manner as the test drugs. Tolbutamide dissolved with acetonitrile (200 ng/ml) was used as IS.
The resultant supernatants were determined by LC-MS/MS. The specific assay conditions are shown in Support Materials (Supplementary Table S2).
(In PAMPA a lipid-coated filter parts donor from acceptor wells.)

In brackets after ≈: the same amount, converted by molar mass.

For Pinoresinol [PINL], the “vasorelaxant effect on PE-constricted aortic rings” value in data set [1] (increasing concentration 25–200 μM) is “concentration-dependent vasorelaxation”. Besides, the “vasorelaxation degree, endothelium-denuded versus endothelium-intact group” value in data set [1] (PINL difference at 50–100 μM) is “significantly lower”. In addition, the “vasorelaxant response compared between groups” value in data set [1] (endothelium-intact rings, PINL vs PDG at 50 μM, combination vs single at 25, 50 and 100 μM) is “significantly better than in the PDG group”.
In turn, `COc1ccc2[nH]c([S+]([O-])Cc3ncc(C)c(OC)c3C)nc2c1` (stereo not drawn) [Omeprazole, omeprazole, reference compound] returned a T1/2 in data set [2] (RLM with NADPH) of 15.6 min.
One may read the kinetic solubility as solubility judged after dilution from a stock solution rather than from solid. In the case of `COC(=O)C1=C(C)NC(C)=C(C(=O)OCCN(C)Cc2ccccc2)C1c1cccc([N+](=O)[O-])c1` (stereo not drawn) [nicardipine, reference compound], in data set [3], the kinetic solubility came to 9.94 ± 0.05 µg/mL (≈ 20.7 µM).
As usually defined, the microsomal CLint is the capacity of the preparation to metabolise the compound, expressed as a volume cleared per time. `COc1ccc2c(c1)[C@]13CCCC[C@@H]1[C@H](C2)N(C)CC3` [Dextromethorphan, dextromethorphan, reference compound]: the T1/2 in data set [2] (HLM with NADPH) was 63.8 min. In data set [2] (human, microsomes), the microsomal CLint amounted to 21.7 µL/min/mg.
Consider `CC(=O)N1CCN(c2ccc(OCC3COC(Cn4ccnc4)(c4ccc(Cl)cc4Cl)O3)cc2)CC1` (stereo not drawn) [ketoconazole, reference compound], for which the solubility (kinetic) in data set [3] is 38.9 ± 1.54 µg/mL (≈ 73.2 µM).
A word on the Papp: it is a coefficient for how fast a substance crosses the barrier. High values mean fast passage, low ones slow passage. In data set [4], `C[C@H]1O[C@@H](O[C@H]2[C@@H](O)C[C@H](O[C@H]3[C@@H](O)C[C@H](O[C@H]4CC[C@@]5(C)[C@H](CC[C@@H]6[C@@H]5C[C@@H](O)[C@]5(C)[C@@H](C7=CC(=O)OC7)CC[C@]65O)C4)O[C@@H]3C)O[C@@H]2C)C[C@H](O)[C@@H]1O` [Digoxin, digoxin, reference compound] had an apparent permeability coefficient (Papp) at 18000 s of 0.589 ×10⁻⁶ cm/s.
